Laboratory results: ChEMBL document CHEMBL1147660, “Discovery of SCH446211 (SCH6): a new ketoamide inhibitor of the HCV NS3 serine protease and HCV subgenomic RNA replication” (J Med Chem, 2006)
Numbered stars: 1 amine (or outer) side, 2 acyl side, 3 side chain; on linkers, the order of the positions; unused ones are H or OH. Square brackets hold non-standard residues; d marks the D form. Peptide text beside a SMILES is read from it. * marks the point of attachment. Pro(3R,4S-CMe2) = CC1(C)[C@@H]2[C@@H](C(=O)O)NC[C@@H]21; Pro(4,4-S(CH2)3S) = O=C(O)[C@@H]1CC2(CN1)SCCCS2; Pro(4,4-SCH2CH2S) = O=C(O)[C@@H]1CC2(CN1)SCCS2; X4 = O=C(C(=O)[*:2])C(CCC(F)(F)F)N[*:1]; Pro(4,4-Me2) = CC1(C)CN[C@H](C(=O)O)C1; Pro(4R-Me) = C[C@H]1CN[C@H](C(=O)O)C1; Isobutyloxycarbonyl = CC(C)COC(=O)*; X1 = O=C(C(=O)[*:2])C(CC1CC1)N[*:1]; X3 = CCCCC(N[*:1])C(=O)C(=O)[*:2]; Hyp = O=C(O)[C@@H]1C[C@@H](O)CN1; X2 = CCCC(N[*:1])C(=O)C(=O)[*:2]; Chg = N[C@H](C(=O)O)C1CCCCC1; Phg = N[C@H](C(=O)O)c1ccccc1; Tle = CC(C)(C)[C@H](N)C(=O)O; Boc = CC(C)(C)OC(=O)*; tBu = CC(C)(C)*

Assays:
[1] = target: NS3 (Hepatitis C virus, UniProt A3EZJ3); experiment: Binding affinity to HCV NS3 serine protease; set-up: species or system Hepacivirus hominis
[2] = test system: Hepatitis C virus; experiment: Inhibition of HCV replicon; format: functional, Hepacivirus hominis
[3] = AUC in rat at 10 mg/kg, po; format: ADME, organism-based; set-up: dose 10 mg/kg, route oral; conditions: plasma
[4] = Cmax in rat at 10 mg/kg, po; format: ADME, organism-based; set-up: dose 10 mg/kg, route oral; conditions: in vivo
[5] = AUC in rat at 5 mg/kg, iv; format: ADME, organism-based; set-up: dose 5 mg/kg, route intravenous; conditions: plasma
[6] = Half life in rat at 5 mg/kg, iv; format: ADME, organism-based; set-up: dose 5 mg/kg, route intravenous; conditions: in vivo
[7] = Clearance in rat; format: ADME, organism-based; conditions: in vivo
[8] = Oral bioavailability in rat at 10 mg/kg, po; format: ADME, organism-based; conditions: in vivo
[9] = AUC in rat at 10 mg/kg, sc; format: ADME, organism-based; set-up: dose 10 mg/kg, route subcutaneous; conditions: plasma
[10] = Selectivity for HCV NS3 serine protease over HNE
[11] = Cmax in rat at 10 mg/kg, sc; format: ADME, organism-based; set-up: dose 10 mg/kg, route subcutaneous; conditions: in vivo
[12] = Oral bioavailability in rat at 10 mg/kg, sc; format: ADME, organism-based; conditions: in vivo, subcutaneous
[13] = AUC in monkey at 3 mg/kg, po; format: ADME, organism-based, Macaca mulatta; set-up: dose 3 mg/kg, route oral; conditions: rhesus monkey, plasma
[14] = Cmax in monkey at 3 mg/kg, po; format: ADME, organism-based, Macaca mulatta; set-up: dose 3 mg/kg, route oral; conditions: rhesus monkey, in vivo
[15] = AUC in monkey at 1 mg/kg, iv; format: ADME, organism-based, Macaca mulatta; set-up: dose 1 mg/kg, route intravenous; conditions: rhesus monkey, plasma
[16] = Half life in monkey at 1 mg/kg, iv; format: ADME, organism-based, Macaca mulatta; set-up: dose 1 mg/kg, route intravenous; conditions: rhesus monkey, in vivo
[17] = Clearance in monkey; format: ADME, organism-based, Macaca mulatta; conditions: rhesus monkey, in vivo
[18] = Oral bioavailability in monkey at 3 mg/kg, po; format: ADME, organism-based, Macaca mulatta; conditions: rhesus monkey, in vivo
[19] = AUC in monkey at 1 mg/kg, sc; format: ADME, organism-based, Macaca mulatta; set-up: dose 1 mg/kg, route subcutaneous; conditions: rhesus monkey, plasma
[20] = Cmax in monkey at 1 mg/kg, sc; format: ADME, organism-based, Macaca mulatta; set-up: dose 1 mg/kg, route subcutaneous; conditions: rhesus monkey, in vivo
[21] = Oral bioavailability in monkey at 1 mg/kg, sc; format: ADME, organism-based, Macaca mulatta; conditions: rhesus monkey, in vivo, subcutaneous

Sequence of NS3 (A3EZJ3 whole entry): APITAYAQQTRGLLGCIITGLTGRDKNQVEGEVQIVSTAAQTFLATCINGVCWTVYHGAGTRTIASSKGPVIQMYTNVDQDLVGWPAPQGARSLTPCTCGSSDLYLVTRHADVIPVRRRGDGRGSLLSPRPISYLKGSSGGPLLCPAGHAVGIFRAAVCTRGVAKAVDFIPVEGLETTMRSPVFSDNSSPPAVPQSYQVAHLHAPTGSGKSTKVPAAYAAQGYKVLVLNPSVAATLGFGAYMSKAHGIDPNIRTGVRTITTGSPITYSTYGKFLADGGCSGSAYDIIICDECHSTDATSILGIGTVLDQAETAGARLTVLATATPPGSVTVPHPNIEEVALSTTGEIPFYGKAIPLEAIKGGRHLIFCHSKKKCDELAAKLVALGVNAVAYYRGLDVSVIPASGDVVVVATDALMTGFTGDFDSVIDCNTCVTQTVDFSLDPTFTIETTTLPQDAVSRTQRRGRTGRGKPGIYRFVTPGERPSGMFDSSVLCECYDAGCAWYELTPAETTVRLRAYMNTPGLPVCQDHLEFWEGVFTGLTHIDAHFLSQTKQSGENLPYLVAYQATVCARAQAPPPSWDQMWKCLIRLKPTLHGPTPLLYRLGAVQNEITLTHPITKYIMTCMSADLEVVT

| Ki [1] [nM] | IC90 [2] [nM] | Selectivity ratio [10] | SMILES | further results |
| --- | --- | --- | --- | --- |
| 10 | 1800 |  | CCCC(NC(=O)[C@@H]1[C@H]2CC(C)(C)O[C@H]2CN1C(=O)[C@@H](NC(=O)OCC(C)C)C(C)(C)C)C(=O)C(=O)NCC(=O)N[C@H](C(=O)N(C)C)c1ccccc1 (some centres undefined) |  |
| 120 |  |  | CCCC(NC(=O)[C@@H]1C[C@@H](SC(C)(C)C)CN1C(=O)[C@@H](NC(=O)OCC(C)C)C(C)(C)C)C(=O)C(=O)NCC(=O)N[C@H](C(=O)N(C)C)c1ccccc1 (some centres undefined) |  |
| 15 | 900 |  | CCCC(NC(=O)[C@@H]1[C@H]2CC(C)(C)C[C@H]2CN1C(=O)[C@@H](NC(=O)OCC(C)C)C(C)(C)C)C(=O)C(=O)NCC(=O)N[C@H](C(=O)N(C)C)c1ccccc1 (some centres undefined) |  |
| 26 |  |  | CCCC(NC(=O)[C@@H]1CC2(CCCC2)CN1C(=O)[C@@H](NC(=O)OCC(C)C)C1CCCCC1)C(=O)C(=O)NCC(=O)N[C@H](C(=O)N(C)C)c1ccccc1 (some centres undefined) |  |
| 3.8 | 100 | 1000 | CN(C)C(=O)[C@@H](NC(=O)CNC(=O)C(=O)C(CC1CC1)NC(=O)[C@@H]1[C@@H]2[C@H](CN1C(=O)[C@@H](NC(=O)OC(C)(C)C)C(C)(C)C)C2(C)C)c1ccccc1 (stereo partly drawn) (Boc-[Tle][Pro(3R,4S-CMe2)][X1]G[Phg]-NMe2) | AUC [3]: 0.35 µM·h; Cmax [4]: 120 nM; AUC [5]: 4.7 µM·h; half-life [6]: 5.2 h; clearance [7]: 24 mL/min/kg; bioavailability [8]: 4%; AUC [9]: 19.5 µM·h; Cmax [11]: 4370 nM; bioavailability [12]: 100%; AUC [13]: 0.03 µM·h; Cmax [14]: 30 nM; AUC [15]: 3.4 µM·h; half-life [16]: 5.3 h; clearance [17]: 6.9 mL/min/kg; bioavailability [18]: 1%; AUC [19]: 5.6 µM·h; Cmax [20]: 1600 nM; bioavailability [21]: 100% |
| 14 | 250 | 147 | CCCC(NC(=O)[C@@H]1[C@@H]2[C@H](CN1C(=O)[C@@H](NC(=O)OC(C)(C)C)C(C)(C)C)C2(C)C)C(=O)C(=O)NCC(=O)N[C@H](C(=O)N(C)C)c1ccccc1 (stereo partly drawn) (Boc-[Tle][Pro(3R,4S-CMe2)][X2]G[Phg]-NMe2) |  |
| 10 | 400 | 964 | CCCCC(NC(=O)[C@@H]1[C@@H]2[C@H](CN1C(=O)[C@@H](NC(=O)OC(C)(C)C)C(C)(C)C)C2(C)C)C(=O)C(=O)NCC(=O)N[C@H](C(=O)N(C)C)c1ccccc1 (stereo partly drawn) (Boc-[Tle][Pro(3R,4S-CMe2)][X3]G[Phg]-NMe2) |  |
| 2 | 400 | 4600 | CN(C)C(=O)[C@@H](NC(=O)CNC(=O)C(=O)C(CCC(F)(F)F)NC(=O)[C@@H]1[C@@H]2[C@H](CN1C(=O)[C@@H](NC(=O)OC(C)(C)C)C(C)(C)C)C2(C)C)c1ccccc1 (stereo partly drawn) (Boc-[Tle][Pro(3R,4S-CMe2)][X4]G[Phg]-NMe2) |  |
| 10000 |  |  | CCCC(NC(=O)[C@@H]1CCCN1C(=O)[C@@H](NC(=O)OCC(C)C)C1CCCCC1)C(=O)C(=O)NCC(=O)N[C@H](C(=O)N(C)C)c1ccccc1 (some centres undefined) (Isobutyloxycarbonyl-[Chg]P[X2]G[Phg]-NMe2) |  |
| 10 | 200 | 4 | CCCC(NC(=O)[C@@H]1[C@@H]2[C@H](CN1C(=O)[C@@H](NC(=O)OCC(C)C)C1CCCCC1)C2(C)C)C(=O)C(=O)NCC(=O)N[C@H](C(=O)N(C)C)c1ccccc1 (stereo partly drawn) (Isobutyloxycarbonyl-[Chg][Pro(3R,4S-CMe2)][X2]G[Phg]-NMe2) |  |
| 28 |  |  | CCCC(NC(=O)[C@@H]1CC2(CN1C(=O)[C@@H](NC(=O)OCC(C)C)C1CCCCC1)SCCCS2)C(=O)C(=O)NCC(=O)N[C@H](C(=O)N(C)C)c1ccccc1 (some centres undefined) (Isobutyloxycarbonyl-[Chg][Pro(4,4-S(CH2)3S)][X2]G[Phg]-NMe2) |  |
| 26 |  |  | CCCC(NC(=O)[C@@H]1CC2(CN1C(=O)[C@@H](NC(=O)OCC(C)C)C1CCCCC1)SCCS2)C(=O)C(=O)NCC(=O)N[C@H](C(=O)N(C)C)c1ccccc1 (some centres undefined) (Isobutyloxycarbonyl-[Chg][Pro(4,4-SCH2CH2S)][X2]G[Phg]-NMe2) |  |
| 19 | 2000 |  | CCCC(NC(=O)[C@@H]1C[C@@H](OC(C)(C)C)CN1C(=O)[C@@H](NC(=O)OCC(C)C)C(C)(C)C)C(=O)C(=O)NCC(=O)N[C@H](C(=O)N(C)C)c1ccccc1 (some centres undefined) (Isobutyloxycarbonyl-[Tle][Hyp](tBu)[X2]G[Phg]-NMe2) |  |
| 16 | 350 | 81 | CCCC(NC(=O)[C@@H]1[C@@H]2[C@H](CN1C(=O)[C@@H](NC(=O)OCC(C)C)C(C)(C)C)C2(C)C)C(=O)C(=O)NCC(=O)N[C@H](C(=O)N(C)C)c1ccccc1 (stereo partly drawn) (Isobutyloxycarbonyl-[Tle][Pro(3R,4S-CMe2)][X2]G[Phg]-NMe2) |  |
| 36 |  |  | CCCC(NC(=O)[C@@H]1CC(C)(C)CN1C(=O)[C@@H](NC(=O)OCC(C)C)C(C)(C)C)C(=O)C(=O)NCC(=O)N[C@H](C(=O)N(C)C)c1ccccc1 (some centres undefined) (Isobutyloxycarbonyl-[Tle][Pro(4,4-Me2)][X2]G[Phg]-NMe2) |  |
| 140 |  |  | CCCC(NC(=O)[C@@H]1C[C@@H](C)CN1C(=O)[C@@H](NC(=O)OCC(C)C)C(C)(C)C)C(=O)C(=O)NCC(=O)N[C@H](C(=O)N(C)C)c1ccccc1 (stereo partly drawn) (Isobutyloxycarbonyl-[Tle][Pro(4R-Me)][X2]G[Phg]-NMe2) |  |
